Tests used:
[1] = system: murine bone marrow-derived macrophages; experiment: area under cytotoxicity dose-response curve (AUC (% cytotoxicity x dose, relative)); higher = more cytotoxic; conditions: duration: 6 days; dose range: 0.13-80 uM, 8 points
In short: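 Values are the area under the cytotoxicity dose–response curve, calculated with GraphPad Prism version 10. Primary murine bone marrow-derived macrophages were exposed to final concentrations of 80–0.13 μM for 6 days, and viability was read by CellTiter-Glo luminescence with normalisation to vehicle and positive control wells.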

[2] = system: Mycobacterium tuberculosis CDC1551 (intracellular, in murine BMDM); experiment: area under intracellular growth-inhibition dose-response curve (AUC (% inhibition x dose, relative)); higher = more potent; conditions: duration: 6 days; dose range: 0.13-80 uM, 8 points
In short: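 The value is the area under the growth-inhibition dose–response curve, calculated in GraphPad Prism. Primary murine bone marrow-derived macrophages were seeded in 384-well opaque plates and, 24 h later, infected for 1 h with luciferase-expressing M. tuberculosis CDC1551 at multiplicity of infection 1. Cells were then exposed for 6 days to an 8-dose, 2.5-fold series (final 80–0.13 μM). Growth was read with the Bright-Glo luciferin assay and normalised to a reference drug control and to the lowest-concentration wells.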

SMILES | area under cytotoxicity dose-response curve [1] | area under intracellular growth-inhibition dose-response curve [2]
CC(C)[C@H](CN1CCC[C@H]1CN1C(N)=NC[C@@H]1Cc1ccccc1)N1C[C@@H](Cc2ccccc2)N(CCc2ccc(Cl)c(Cl)c2)C1=N | 52.7 | 211
Cc1ccccc1N1CCN(Cc2ccc([N+](=O)[O-])o2)CC1 | < 0 | 263
On1c(-c2ccc(Cl)cc2)nc2ccccc21 | 124 | 63.1
O=C(Nc1ccc2c(c1)OCCO2)NC12CC3CC(CC(C3)C1)C2 | 22.8 | 136
Cc1nnc(SCC2=C(C(=O)O)N3C(=O)C(NC(=O)Cn4nc(C(F)F)cc4C)C3SC2)s1 (stereo unspecified) | < 0 | 215
O=C(/C=C/c1cccs1)NCc1cccs1 | 34.6 | 240
CCOc1ccc(OCCC(=O)NNC(=O)c2ccncc2)cc1 | 1.82 | 272
COCCCNCC(=O)Nc1sc(C)c(C)c1C(=O)OC.O=C(O)C(=O)O | 48.9 | 76.8
CC(C)(C)c1csc(N/N=C/c2ccc(O)cc2)n1 | 19.1 | 235
CC(C)(C)C1C/C(=C/c2ccccn2)C(=O)/C(=C/c2ccccn2)C1 (stereo unspecified) | 155 | 65.4
CC(C)c1ccc(NC(=O)NC2CCCCC2)cc1 | 66.5 | 185
CC(=O)Nc1sc(N/N=C\c2ccc(O)cc2)nc1-c1cccs1 | 155 | 194
Cc1cc(=O)c2cc(Br)ccc2n1CC(=O)NCc1ccccc1 | 41.6 | 233
COC(=O)C1C(O)C(C)C(O)C(C)/C=C\C=C(/C)C(=O)Nc2c(C)c(OC(C)=O)c3c(c2O)C(=O)C(C)=C2OCOC(=C23)/C(C)=C/C(C)(O)C(O)C(C)C1O (stereo unspecified) | 11.5 | 216
COc1cccc(/C=N/NC(N)=S)c1OS(=O)(=O)c1ccccc1 | 94.4 | 237
O=C(CCC1CCCC1)NCc1ccccn1 | < 0 | 240
CC(C)CCNC(=O)CSc1nc(O)c2ccccc2n1 | 40.4 | 27.8
CCC(=O)NC(=S)Nc1ccc(NC(=O)COc2ccccc2)cc1 | 69.1 | 201
Cc1ccc(C(=O)c2oc3ccc(Cl)cc3c2NC(=O)CN2CCN(C)CC2)cc1 | 69.1 | 131
Cn1c(COc2ccc(Cl)cc2)nnc1SCC(=O)NC1CC1 | 96 | 24.4
CC(C)c1ccc(NC(=S)NC2CCCCCC2)cc1 | < 0 | 141
O=C(/C=C/c1ccc([N+](=O)[O-])o1)NNC(=O)c1ccc(F)cc1 | 51.9 | 19.6
C[C@H]1COc2c(N3CCN(C)CC3)c(F)cc3c(=O)c(C(=O)O)cn1c23 | 137 | 200
CC1CCC(C(C)C)C(OC(=O)C[n+]2cc(-c3ccc(Cl)cc3)n3c2CCCCC3)C1.[Cl-] (stereo unspecified) | 107 | 94.6
Cc1nn2c(O)cc(-c3ccc([N+](=O)[O-])cc3)nc2c1-c1ccccc1 | 99.5 | 128
Cc1ccc(CNC(=O)c2ccc(Br)o2)cc1 | < 0 | 267
CC(NC(=O)c1cc2ccccc2o1)c1cccs1 (stereo unspecified) | < 0 | 257

SMILES | area under cytotoxicity dose-response curve [1] | area under intracellular growth-inhibition dose-response curve [2]
Cc1ccc(/C(O)=C/c2nc3ccccc3oc2=O)cc1 | < 0 | 22.9
CN(C)c1ccc(S(=O)(=O)N2CCCCC2)cc1NC(=O)CCNC(=O)c1ccccc1Cl | < 0 | 67.5
Cc1ccc(C(=O)OCC(=O)Nc2ccccc2)cc1S(=O)(=O)N1CCCCC1 | < 0 | 94.3
Cc1nnc(SCC2=C(C(=O)O)N3C(=O)C(NC(=O)Cn4cnnn4)C3SC2)s1 (stereo unspecified) | 100 | 138
O=C(Nc1ccc(F)cc1)NC1CCCCCCC1 | 144 | 182
O=C(NCc1ccco1)c1csc2c1CCCCC2 | 55.5 | 212
CCCc1cc(C(=O)NC2CCCCC2)no1 | 108 | 232
CCCc1ccc(C(=O)CCC(=O)NNC(=O)c2ccncc2)cc1 | 9.69 | 270
CCOC(=O)CCCc1ccc(/C(C)=N/NC(N)=S)cc1 | 65.1 | 156
COc1ccc(CCNC(=O)c2ccc(Cl)cc2)cc1 | < 0 | 241
C[C@@H]1C2CC(C/C2=N\NC(=O)c2ccncc2)C1(C)C (stereo partly specified) | < 0 | 260
COc1ccc(Cl)cc1NC(=O)C(C)OC(=O)Cn1cc(C(F)(F)F)ccc1=O (stereo unspecified) | 119 | 24.1
CCC(=O)N1NC(=C2C(=O)N(C)C(=O)N(C)C2=O)CC1c1ccccc1 (stereo unspecified) | 23.3 | 122
CCC(NC(=O)Nc1nnc(C(F)(F)F)s1)(C(F)(F)F)C(F)(F)F | 14.5 | 143
COc1ccc(C)cc1-n1nnnc1SC(C)C(=O)NC1CCCC1 (stereo unspecified) | < 0 | 44.8
O=C(Nc1ccc(S(=O)(=O)Nc2nccs2)cc1)C(F)(F)F | 30 | 159
Cc1c(C)c2cccnc2c2ncccc12 | 36.7 | 162
CCOc1ccc(C(=O)CCC(=O)NNC(=O)c2ccncc2)cc1 | 49 | 119
CCS(=O)(=O)N1CCN(C(=O)CCC2CCCC2)CC1 | 19.5 | 214
Cc1c2c(nc3ccccc13)CCC(C)C2.Cl (stereo unspecified) | < 0 | 199
O=C(CSc1ccc(Cl)cc1)NNC(=O)c1ccncc1 | 107 | 241
C/C(CC(=O)Nc1cccc(C(F)(F)F)c1)=N\NC(=O)c1ccncc1 | < 0 | 212
COc1ccc(CCNC(=S)Nc2ccccc2)cc1 | 78.8 | 134
CCCCNC(=O)/C=C/c1cccs1 | 7.87 | 191
CCCN1CNC(=S)N(c2ccc(C(=O)OCC)cc2)C1 | 9 | 83.8
COc1ccc(/C=N/NC(N)=S)cc1OC(=O)c1ccccc1 | 106 | 241
